Results on 3 compounds are retold here after patent US8999953B2, “Cyclodextrin nanotechnology for ophthalmic drug delivery” (Oculis EHF, priority 2005, dated 2015).

Values after ≈ are worked out from the molar mass of the structure shown. Where a name gives a salt, the structure may show the parent alone.

Series [1] can be described thus: Phase-solubility study of dexamethasone with RMβCD or γCD. Format: physicochemical. The conditions noted are these: for Phase-solubility diagram type: room temperature. As to the method: Phase-solubility study was performed to determine the exact amount of RMβCD needed to solubilize dexamethasone in the eye drop medium. An excess amount of dexamethasone was added to aqueous solution containing from 0 to 25% (w/v) RMβCD, benzalkonium chloride (0.02% w/v), EDTA (0.1% w/v), NaCl (0.00 to 0.72% w/v) and HPMC (0.1%). […] The suspensions were allowed to cool to room temperature (22-23° C.) and equilibrate for 7 days. After equilibrium was attained, the suspension was filtered through a 0.45 μm membrane filter, diluted and analyzed by HPLC. […] The phase-solubility was determined to be of AL-type and thus dexamethasone appears to form 1:1 dexamethasone/RMβCD complex in the aqueous eye drop formulation.
Phase-solubility study was performed to determine the exact amount of γCD needed to solubilize dexamethasone. An excess amount of dexamethasone was added to aqueous solution or suspension containing from 0 to 10% (w/v) γCD. […] The suspensions were allowed to cool to room temperature (22-23° C.) and equilibrate for 7 days. After equilibrium was attained, the suspension was filtered through a 0.45 μm membrane filter, and the filtrate diluted and analyzed by HPLC.

Series [2] in a line: Eye drop formulation properties (osmolarity, viscosity, dissolved dexamethasone). Format: physicochemical. The conditions noted are these: aqueous eye drop suspension with γ-cyclodextrin, aqueous with cosolvent or surfactant or cyclodextrin, thermodynamic from solid; eye drop formulation of EXPERIMENT 4.
The next series is described as follows: physchem. The following applies: aqueous cyclodextrin solution, 22.5 °C, aqueous with cosolvent or surfactant or cyclodextrin, thermodynamic from solid.
The subject of another series is rabbit eye. Put plainly: Ocular irritation in rabbits following powder administration. It counts as in vivo. The conditions noted are these: for Bulbar redness (points) / Discharge (points): drug eye, pure powder, median (range), 0-3 points. As to the method: Timolol maleate powder was administered to one eye of each rabbit and the other eye was used as control. Both pure timolol maleate powder and freeze-dried with PVP-polymer (2.4% of mass) were tested in 1.0 mg (n=3) and 0.1 mg (n=6) doses. Additionally, four rabbits received 0.1 mg of the pure powder 3 times a day for 8 days. Redness of bulbar conjunctivae and the amount of discharge were rated from photographs (0-3 points, randomized and masked evaluation). Slitlamp examination was also performed. Hematoxylin-eosin (H&E) stained sections of eyes were examined with a light microscope following the 8 days experiment.

Series [3] in a line: Solubility of drugs in pure aqueous cyclodextrin solutions at room temperature (Experiment 6). The conditions noted are these: 22-23° C.

Usually solubility stands for the dissolved amount per volume that the medium holds. In the case of `C[C@@H]1C[C@H]2[C@@H]3CCC4=CC(=O)C=C[C@]4(C)[C@@]3(F)[C@@H](O)C[C@]2(C)[C@@]1(O)C(=O)CO` [Dexamethasone], the Phase-solubility diagram type result is listed as “AL-type” in series [1] (aqueous RMβCD (0-25% w/v) eye drop solutions) and “BS-type” in series [1] (γCD 0 to 10% (w/v) in pure water). For the same compound, the solubility at 7 days was 5300 µg/mL (≈ 13.5 mM) in series [1] (aqueous γ-cyclodextrin solution/suspension, 22.5 °C, aqueous with cosolvent or surfactant or cyclodextrin, thermodynamic from solid, pure water containing γ-cyclodextrin, at 5% (w/v) γCD concentration, read-out: Maximum dexamethasone solubility) and 700 to 900 µg/mL (≈ 1.78 to 2.29 mM) in series [2]. This compound had a solubility in the series “physchem” of 3000 µg/mL (≈ 7.64 mM).
In the case of `CC(C)(C)NC[C@H](O)COc1nsnc1N1CCOCC1` [Timolol maleate powder, Timolol maleate], the Ocular irritation result with rabbit eye (0.1 mg) is recorded as “negligible ocular irritation”. Also, in the series with rabbit eye (0.1 mg 3 times a day for 8 days), the “Slitlamp examination, surface photographs and histology, drug versus control eyes” value is “negligible difference between drug and control eyes”. Further, the Signs of irritation result in the series on rabbit eye (1.0 mg and 0.1 mg doses) is reported as “No serious or irreversible signs of irritation”. Besides, the “Bulbar redness (points)” value is recorded as 0.8 (0.0-1.5) points in the series on rabbit eye (0.1 mg × 24 (8 days, n = 4)); 1.5 (1.0-2.0) points with rabbit eye (1 hr. after 0.1 mg (n = 6)); 1.0 (1.0-1.5) points in the series on rabbit eye (1 hr. after 1.0 mg (n = 3)); 1.0 (0.0-2.0) points with rabbit eye (24 hr. after 0.1 mg (n = 6)); 1.0 (1.0-1.0) points in the series on rabbit eye (24 hr. after 1.0 mg (n = 3)). Besides, the “Discharge (points)” value in the series on rabbit eye (0.1 mg × 24 (8 days, n = 4)) was 0.0 (0.0-0.5) points; with rabbit eye (1 hr. after 0.1 mg (n = 6)) it was 0.0 (0.0-1.5) points; in the series on rabbit eye (1 hr. after 1.0 mg (n = 3)), 1.0 (0.0-2.0) points; in the series with rabbit eye (24 hr. after 0.1 mg (n = 6)), 0.0 (0.0-0.0) points; in the series with rabbit eye (24 hr. after 1.0 mg (n = 3)), 0.3 (0.0-0.8) points.
`CC1(C)O[C@@H]2C[C@H]3[C@@H]4CCC5=CC(=O)C=C[C@]5(C)[C@@]4(F)[C@@H](O)C[C@]3(C)[C@]2(C(=O)CO)O1` [Triamcinolone acetonide] came in with a solubility in the series “physchem” of 1100 µg/mL (≈ 2.53 mM). The “Drug solubility in aqueous randomly methylated β-cyclodextrin” value in series [3] (Randomly methylated β-cyclodextrin 5% w/v) worked out at 2000 µg/mL. Also, the “Drug solubility in aqueous γ-cyclodextrin” value in series [3] (γ-cyclodextrin 5% w/v) was found to be 4400 µg/mL.
